According to ChEMBL document CHEMBL1201862, “PubChem BioAssay data set” (2004):
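Assay format: 96-well plates, 48-hour exposure. GI50: concentration for 50% inhibition of growth.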 The source made the active and inactive calls. Rule as the data show it: active = GI50 up to about 1.1 µM and inactive = higher.

What was measured:
Assay in all cases: NCI anticancer screen, dose series, 48 h
[1] = system: SF-295
[2] = system: COLO 205
[3] = system: K562
[4] = system: UACC-62
[5] = system: A549
[6] = system: CCRF-CEM
[7] = system: HL-60
[8] = system: U-251
[9] = system: HOP-62
[10] = system: SK-MEL-2
[11] = system: ACHN
[12] = system: HCT-116
[13] = system: LOX IMVI
[14] = system: MOLT-4
[15] = system: SK-MEL-5
[16] = system: KM12
[17] = system: Hs-578T
[18] = system: SF-539
[19] = system: OVCAR-4
[20] = system: Malme-3M

Compound	GI50 [1]	GI50 [2]	GI50 [3]	GI50 [4]	GI50 [5]	GI50 [6]	GI50 [7]	GI50 [8]	GI50 [9]	GI50 [10]	GI50 [11]	GI50 [12]	GI50 [13]	GI50 [14]	GI50 [15]	GI50 [16]	GI50 [17]	GI50 [18]	GI50 [19]	GI50 [20]
COC(=O)C(CCC1CC(OC)N(C(=O)OCc2ccccc2)C1)/N=C/c1ccccc1 (stereo not drawn)	> 100 µM (inactive)	29.3 µM (inactive)	45.2 µM (inactive)	84.1 µM (inactive)	83 µM (inactive)	41.9 µM (inactive)	47.8 µM (inactive)	> 100 µM (inactive)	> 100 µM (inactive)	26.1 µM (inactive)	> 100 µM (inactive)	55.3 µM (inactive)	> 100 µM (inactive)	30.1 µM (inactive)	29.2 µM (inactive)	94.8 µM (inactive)	> 100 µM (inactive)	> 100 µM (inactive)	62.1 µM (inactive)	–
COCc1cc2c(s1)C(=O)C1=C(C2=O)C2(C=C(Br)C(=O)C(Br)=C2)CCN1	6.05 µM (inactive)	3.02 µM (inactive)	2.11 µM (inactive)	1.56 µM (inactive)	6.53 µM (inactive)	3.01 µM (inactive)	2.36 µM (inactive)	11.4 µM (inactive)	–	3.55 µM (inactive)	4.98 µM (inactive)	1.41 µM (inactive)	2.19 µM (inactive)	2.43 µM (inactive)	1.71 µM (inactive)	4.85 µM (inactive)	9.53 µM (inactive)	4.65 µM (inactive)	1.65 µM (inactive)	0.946 µM (active)
CC1=C(C(=O)N[C@@H](CC(C)C)C(=O)O)N2C(=O)[C@@H](NC(=O)C(N)c3ccccc3)[C@H]2SC1 (stereo partly drawn)	> 100 µM (inactive)	> 100 µM (inactive)	> 100 µM (inactive)	79.3 µM (inactive)	> 100 µM (inactive)	> 100 µM (inactive)	> 100 µM (inactive)	> 100 µM (inactive)	–	> 100 µM (inactive)	> 100 µM (inactive)	–	> 100 µM (inactive)	> 100 µM (inactive)	> 100 µM (inactive)	> 100 µM (inactive)	> 100 µM (inactive)	> 100 µM (inactive)	> 100 µM (inactive)	> 100 µM (inactive)
CN1N(c2ccccc2)C(=O)C2=NC=C(C(=O)c3ccccc3)C(=N)C21C (stereo not drawn)	> 100 µM (inactive)	> 100 µM (inactive)	> 100 µM (inactive)	> 100 µM (inactive)	> 100 µM (inactive)	> 100 µM (inactive)	> 100 µM (inactive)	> 100 µM (inactive)	> 100 µM (inactive)	> 100 µM (inactive)	> 100 µM (inactive)	> 100 µM (inactive)	> 100 µM (inactive)	> 100 µM (inactive)	> 100 µM (inactive)	–	> 100 µM (inactive)	> 100 µM (inactive)	> 100 µM (inactive)	> 100 µM (inactive)
COc1cc(-c2c[nH]c3ccccc23)nc(-c2c[nH]c3ccccc23)n1	3.13 µM (inactive)	8.32 µM (inactive)	3.96 µM (inactive)	6.18 µM (inactive)	3.27 µM (inactive)	1.13 µM (inactive)	3.43 µM (inactive)	4.19 µM (inactive)	8.89 µM (inactive)	4.94 µM (inactive)	2.61 µM (inactive)	3.43 µM (inactive)	4.84 µM (inactive)	2.9 µM (inactive)	5 µM (inactive)	4.18 µM (inactive)	16.3 µM (inactive)	7.14 µM (inactive)	8.81 µM (inactive)	–
COc1cc(NC(C)=O)ccc1C(=O)NN1C(=O)/C(=C/c2ccco2)N=C1c1ccccc1	> 50 µM (inactive)	> 50 µM (inactive)	20.5 µM (inactive)	25.4 µM (inactive)	> 50 µM (inactive)	12.5 µM (inactive)	13.6 µM (inactive)	–	21.4 µM (inactive)	14.3 µM (inactive)	> 50 µM (inactive)	30.8 µM (inactive)	34.2 µM (inactive)	14.5 µM (inactive)	16 µM (inactive)	–	> 50 µM (inactive)	33.4 µM (inactive)	49.5 µM (inactive)	> 50 µM (inactive)
COc1ccc(OC)c2c1C(=O)C(Cl)=C(Cl)C2=O	20.1 µM (inactive)	1.56 µM (inactive)	> 22.2 µM (inactive)	2.58 µM (inactive)	22.3 µM (inactive)	14.6 µM (inactive)	44.5 µM (inactive)	18 µM (inactive)	–	3.06 µM (inactive)	2.99 µM (inactive)	1.72 µM (inactive)	2.07 µM (inactive)	2.51 µM (inactive)	5.64 µM (inactive)	17.3 µM (inactive)	2.65 µM (inactive)	4.72 µM (inactive)	3.54 µM (inactive)	2.25 µM (inactive)
CC(C)(C)OC(=O)NCC(c1c[nH]c2ccccc12)c1c[nH]c2ccccc12	15.6 µM (inactive)	14.6 µM (inactive)	–	> 100 µM (inactive)	14.6 µM (inactive)	14.6 µM (inactive)	14.4 µM (inactive)	16.1 µM (inactive)	16.9 µM (inactive)	18.4 µM (inactive)	> 100 µM (inactive)	16 µM (inactive)	17.9 µM (inactive)	11.7 µM (inactive)	13 µM (inactive)	13.3 µM (inactive)	24.1 µM (inactive)	17.7 µM (inactive)	12.9 µM (inactive)	17.7 µM (inactive)
COC(=O)[C@@H]1OC(C)(c2ccccc2)O[C@H]1C(=O)OC	> 100 µM (inactive)	> 100 µM (inactive)	> 100 µM (inactive)	> 100 µM (inactive)	> 100 µM (inactive)	48.1 µM (inactive)	4.52 µM (inactive)	> 100 µM (inactive)	> 100 µM (inactive)	> 100 µM (inactive)	> 100 µM (inactive)	–	> 100 µM (inactive)	> 100 µM (inactive)	> 100 µM (inactive)	> 100 µM (inactive)	> 100 µM (inactive)	> 100 µM (inactive)	> 100 µM (inactive)	> 100 µM (inactive)
C/C(=N\NC(N)=S)C(CN1CCCCC1)C(C1=C(O)c2ccccc2OC1)c1ccccc1 (stereo not drawn)	> 100 µM (inactive)	> 100 µM (inactive)	–	> 100 µM (inactive)	> 100 µM (inactive)	61.1 µM (inactive)	36.1 µM (inactive)	> 100 µM (inactive)	41 µM (inactive)	> 100 µM (inactive)	> 100 µM (inactive)	> 100 µM (inactive)	> 100 µM (inactive)	64 µM (inactive)	> 100 µM (inactive)	> 100 µM (inactive)	> 100 µM (inactive)	> 100 µM (inactive)	83 µM (inactive)	> 100 µM (inactive)
